Measurements taken from patent US10316037B1, “Compounds and methods for treating cancer” (YALE UNIVERSITY, priority 2016, dated 2019).

Test system: cancer cell lines
Experiment: Anti-cancer activity, CellTiter-Glo luminescence after 72 hours compound treatment
Format: cell-based
Conditions: cell line not stated, 4-parameter fit inflection point (IC50)
Protocol: Compounds to be tested for anti-cancer activity were submitted dry, dissolved to 10 mM stocks in DMSO, and stored protected from light at −80° C. until use. DMSO vehicle control wells, and 3 fold serial dilutions of compounds from 10 mM to 6.2 nM were prepared in 384 well plates. Kinamycin and tamoxifen were also added as controls in this manner.
LN2 aliquots of cancer cells (indicated in the tables of FIGS. 3 and 4) were cultured at YCMD and plated in Corning 3707 TC plates at 400 cells/well initial seeding density in 20 uL of growth medium. Cells were incubated overnight at 37′C in a humidified 5% CO2 incubator, and treated with compounds.
20 nL of compound was dispensed into the assay plates using a 384-well pin tool on the Tecan Aquarius. Final assay compound treatments ranged from 10 uM to 6.2 pM, 0.1% DMSO. […]
For assay readout CellTiter-Glo (Promega) was prepared according to manufacturer's instructions and 20 uL/well was added to assay plates using a MultiDrop. Luminescence was read on an Envision plate reader (Perkin Elmer) with 0.3 second sampling time per well after a 10 min. room temperature incubation in the dark.
Toxic effects have low luminescence signal relative to the vehicle control […]. Raw data (luminescence counts per second) were normalized to percent effect by the formula: […]. […]

| Structure (SMILES) | IC50 [µM] |
| --- | --- |
| C[C@H](N)CCc1c2c(cc(=O)n1Cc1nc(-c3nc(C(=O)NCCN(C)C)cs3)cs1)C1(CC1)NC2=O [compound 17a] | 0.035 |
| CSCCCNC(=O)c1csc(-c2csc(Cn3c(CC[C@H](C)NC(=O)OC(C)(C)C)c4c(cc3=O)C3(CC3)NC4=O)n2)n1 [compound S4] | 0.011 |
